# Laboratory results as given in US12324927B2, “Methods and systems for photodynamic therapy calculations” (THE TRUSTEES OF THE UNIVERSITY OF PENNSYLVANIA, priority 2018, dated 2025).
# Where “and” joins values, the source holds several entries; their conditions need not be identical. Equal entries are not always repeated.
# Assay: Photofrin concentration and PDT dose at pleural cavity sites measured by fluorescence with 4-channel PDT dose dosimeter during Photofrin-mediated pleural PDT
# Type: in vivo, human
# Settings: for Mean Photofrin concentration: local tissue concentration per patient and pleural site, Photofrin 2 mg kg^−1 i.v. 24 h before PDT, mean ± SD of smoothed values
# Experimental: The patients in this study were enrolled in a Phase II randomized clinical trial of Photofrin-mediated PDT for pleural mesothelioma treatment. Having given informed consent, they were administered Photofrin (Pinnacle Biologics, Chicago, IL, USA) at 2 mg kg^−1 of body weight as an intravenous infusion 24 h prior to intra-operative PDT. PDT was performed in the operating room, immediately following radical pleurectomy and debulking of tumor. PDT treatment was performed with 632 nm light provided by a KTP-pumped dye laser (model 630 XP, Laserscope, Inc., San Jose, CA, USA) to a total fluence of 60 J cm^−2. Light was delivered to the pleural cavity via an optical fiber inserted into modified endotracheal tube filled with 0.1% intralipid to produce an extended isotropic light source. The pleural cavity was filled with 0.01% intralipid solution during PDT treatment. As the intralipid solution became contaminated with blood as observed by the treating physician, it was repeatedly removed by suction pump and replaced with fresh solution to minimize light absorption by hemoglobin. The light source was circulated around in the lung cavity by the physician during the PDT. The instantaneous light fluence rate and the cumulative light dose were monitored continuously using 8 isotropic detectors (Medlight, Switzerland) sutured to 8 strategic locations within the pleural cavity wall. […] Each spectrometer has wavelength range of 200 nm-1050 nm and resolution of 0.42 nm using a diode array of 2048×1 elements and 14 μm×200 μm per element. The spectral resolution achieved was 0.47 nm. Isotropic detectors 9 to 12 were connected to the multichannel dosimetry system only. The dosimetry system records light fluence rate using photodiodes. Light fluence rate at surface is measured directly with an isotropic detector placed on the surface. The measured light fluence rate is not reflective of intra-tissue light fluence rate, which may be higher or lower than the value on the tissue surface depending on the tissue optical properties. Fluorescence collected by the fibers was collimated and passed through long pass filters (Semrock, Inc., Rochester, NY, USA) to block the treatment light before the transmitted fluorescence was recorded by the spectrometers, whereas no filtration was required for the treatment-light signal in the other arm of the bifurcated fibers. The front view and the schematic diagram of the system setup are shown in FIGS. 1A-B. There are 16 channels on the system enclosure as shown in FIG. 1A. Channels 9 to 16 (top row) are connected to the dosimetry system only whereas Channels 1 to 4 (bottom row) are connected to both the dosimetry system and the spectrometers. Channels 5 to 8 (bottom row) are currently not used. In this study, Channels 1 to 4 are used to measure fluence rate of the treatment light and Photofrin fluorescence concurrently, while Channel 9 to 12 are used to measure light fluence rate only.
# Diffuse reflectance measurements were acquired before and after PDT treatment using a specially designed fiber optic-based contact probe comprising (e.g., or consisting of) one source fiber, coupled to an air-cooled quartz-tungsten-halogen (QTH) lamp (Avalight HAL-S, Avantes, Inc., Louisville, CO, USA), and 9 detection fibers spaced at distances from 1.4 to 8.7 mm from the source. Measurements were made with the probe in contact with the interior surface of the pleural cavity. The reflected light was collected by the detection fibers which are imaged via a spectrograph onto a CCD, to measure radially-resolved diffuse reflectance. Background signal was measured in the same tissue with the white light source turned off, and then subtracted from each measurement. Each tissue spectrum is divided by the spectrum obtained with the same light source and detector in an integrating sphere to account for the wavelength-dependence of the white light source power and CCD response. […]
# [1] = 22 sites, 8 patients, 2 mg kg^−1
substance,measurement,setting,value
Photofrin,mean of the local Photofrin concentrations measured from all sites,[1],3.94±2.01 mg kg 1
same,median of the local Photofrin concentrations measured from all sites,[1],3.37 ± 2.01 mg/kg
same,Mean Photofrin concentration,pleural site ACW,2.80 ± 0.27 mg/kg and 9.38 ± 0.57 mg/kg
same,Mean Photofrin concentration,pleural site AS,3.22 ± 0.35 mg/kg
same,Mean Photofrin concentration,pleural site Apex,4.71 ± 0.15 mg/kg and 3.12 ± 0.35 mg/kg and 1.13 ± 0.02 mg/kg and 3.27 ± 0.71 mg/kg and 7.19 ± 0.92 mg/kg and 4.56 ± 0.45 mg/kg
same,Mean Photofrin concentration,pleural site PCW,3.47 ± 0.42 mg/kg and 1.47 ± 0.20 mg/kg and 1.58 ± 0.21 mg/kg and 5.23 ± 0.47 mg/kg and 2.32 ± 0.23 mg/kg
same,Mean Photofrin concentration,pleural site PM,5.65 ± 0.67 mg/kg and 3.62 ± 0.61 mg/kg and 6.81 ± 0.35 mg/kg
same,Mean Photofrin concentration,pleural site PS,2.94 ± 0.12 mg/kg and 3.01 ± 0.05 mg/kg and 5.73 ± 0.24 mg/kg and 3.54 ± 0.16 mg/kg
same,Mean Photofrin concentration,pleural site Peri,1.87 ± 0.31 mg/kg
same,difference of local sensitizer concentrations within the same patient,"patient #020, same administered dose 2 mg kg^−1",2.9 times
same,difference of local sensitizer concentrations between patients,"patients #016 and #018, same administered dose 2 mg kg^−1",8.3 times
